Measurements taken from ChEMBL document CHEMBL1155532 (Bioorg Med Chem Lett, 2010).

Target: T1, Fatty acid-binding protein, adipocyte (Homo sapiens, UniProt P15090)
Test: Displacement of 8-anilino-1-naphthalene-sulfonic acid from human His-FABP4 expressed in Escherichia coli BL21 (DE3) cells at 100 uM after 3 mins
Target sequence in this assay (P15090 2-132 limits assumed): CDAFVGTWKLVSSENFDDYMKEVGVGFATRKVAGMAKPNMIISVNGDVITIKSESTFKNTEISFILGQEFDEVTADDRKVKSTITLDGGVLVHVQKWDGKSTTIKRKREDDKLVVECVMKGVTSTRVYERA

Row | inhibition [%] | Compound
1 | 44.4 | Cc1ccc(SC(CC(=O)c2ccc(C)cc2)C(=O)O)cc1 (stereo not drawn)
2 | 47.7 | c1cc(CSc2nc3ccccc3[nH]2)nc(CSc2nc3ccccc3[nH]2)c1
3 | 46.9 | COC(=O)c1cc(OC)c(OC)cc1NC(=O)CSCC(=O)O
4 | 56.2 | O=C(O)CSCC(=O)Nc1ccc(F)c(Cl)c1
5 | 84.9 | O=C(O)CSCC(=O)Nc1cc(Cl)cc(Cl)c1
6 | 81.4 | CCCCC/C=C\C/C=C\CCCCCCCC(=O)O
7 | 37.1 | O=c1[nH]nc(SCCS(=O)(=O)c2ccc(Cl)cc2Cl)n1-c1ccc2c(c1)OCCO2
8 | 62.5 | O=C(O)CSCC(=O)NCc1c(Cl)cccc1Oc1ccccc1
9 | 66.8 | CCCCCCCC/C=C\CCCCCCCC(=O)O
10 | 20.1 | COc1ccc(-c2c(C(F)(F)F)nn(C)c2NC(=O)CSCC(=O)O)cc1
11 | 58.7 | O=C(O)CSCC(=O)NCc1ccccc1N1CCCCC1
12 | 40.7 | O=[N+]([O-])c1ccc(S(=O)(=O)c2ccccc2)cc1OS(=O)(=O)c1cc(Cl)cc(Cl)c1

Target: T1, Fatty acid-binding protein, adipocyte
Test: Displacement of 8-anilino-1-naphthalene-sulfonic acid from human His-FABP4 expressed in Escherichia coli BL21 (DE3) cells after 3 mins
Target sequence in this assay (P15090 whole entry): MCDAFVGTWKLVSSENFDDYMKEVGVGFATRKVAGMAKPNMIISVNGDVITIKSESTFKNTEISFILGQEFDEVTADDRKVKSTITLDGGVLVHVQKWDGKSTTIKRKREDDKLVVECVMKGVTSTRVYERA

Row | IC50 [µM] | Compound
13 | > 100 | Cc1ccc(SC(CC(=O)c2ccc(C)cc2)C(=O)O)cc1 (stereo not drawn)
14 | > 100 | c1cc(CSc2nc3ccccc3[nH]2)nc(CSc2nc3ccccc3[nH]2)c1
15 | > 100 | COC(=O)c1cc(OC)c(OC)cc1NC(=O)CSCC(=O)O
16 | 59.5 | O=C(O)CSCC(=O)Nc1ccc(F)c(Cl)c1
17 | 13.5 | O=C(O)CSCC(=O)Nc1cc(Cl)cc(Cl)c1
18 | > 100 | O=c1[nH]nc(SCCS(=O)(=O)c2ccc(Cl)cc2Cl)n1-c1ccc2c(c1)OCCO2
19 | 42.2 | O=C(O)CSCC(=O)NCc1c(Cl)cccc1Oc1ccccc1
20 | > 100 | COc1ccc(-c2c(C(F)(F)F)nn(C)c2NC(=O)CSCC(=O)O)cc1
21 | 56.3 | O=C(O)CSCC(=O)NCc1ccccc1N1CCCCC1
22 | > 100 | O=[N+]([O-])c1ccc(S(=O)(=O)c2ccccc2)cc1OS(=O)(=O)c1cc(Cl)cc(Cl)c1

Target: Fatty acid-binding protein, heart (Homo sapiens, UniProt P05413)
Test: Displacement of 8-anilino-1-naphthalene-sulfonic acid from human His-FABP3 expressed in Escherichia coli BL21 (DE3) cells after 3 mins relative to linoleic acid

Chain of Fatty acid-binding protein, heart (P05413 whole entry): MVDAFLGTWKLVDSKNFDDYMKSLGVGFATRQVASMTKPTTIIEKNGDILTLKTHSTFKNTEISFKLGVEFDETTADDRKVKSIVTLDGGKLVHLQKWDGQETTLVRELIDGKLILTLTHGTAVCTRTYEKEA

Row | IC50 [µM] | Compound
23 | > 432 | O=C(O)CSCC(=O)Nc1ccc(F)c(Cl)c1
24 | > 144 | O=C(O)CSCC(=O)Nc1cc(Cl)cc(Cl)c1
25 | 1.9 | O=C(O)CSCC(=O)NCc1c(Cl)cccc1Oc1ccccc1
26 | 6.3 | O=C(O)CSCC(=O)NCc1ccccc1N1CCCCC1

Organism: Homo sapiens
Test: Selectivity index, ratio of IC50 for His-human FABP3 to IC50 for human His-FABP4

Row | Ratio IC50 | Compound
27 | > 99 | O=C(O)CSCC(=O)Nc1ccc(F)c(Cl)c1
28 | > 144 | O=C(O)CSCC(=O)Nc1cc(Cl)cc(Cl)c1
29 | 0.6 | O=C(O)CSCC(=O)NCc1c(Cl)cccc1Oc1ccccc1
30 | 1.5 | O=C(O)CSCC(=O)NCc1ccccc1N1CCCCC1

Target: T1, Fatty acid-binding protein, adipocyte
Test: Displacement of 8-anilino-1-naphthalene-sulfonic acid from human His-FABP4 expressed in Escherichia coli BL21 (DE3) cells after 3 mins relative to linoleic acid
Target sequence in this assay (P15090 whole entry): as the sequence (P15090 whole entry) above

Row | IC50 [µM] | Compound
31 | 4.4 | O=C(O)CSCC(=O)Nc1ccc(F)c(Cl)c1
32 | 1 | O=C(O)CSCC(=O)Nc1cc(Cl)cc(Cl)c1
33 | 3.1 | O=C(O)CSCC(=O)NCc1c(Cl)cccc1Oc1ccccc1
34 | 4.1 | O=C(O)CSCC(=O)NCc1ccccc1N1CCCCC1

System: not listed separately
Test: Displacement of 8-anilino-1-naphthalene-sulfonic acid from human FABP4 F16A mutant expressed in Escherichia coli BL21 (DE3) cells after 3 mins

Row | IC50 [µM] | Compound
35 | 76.5 | O=C(O)CSCC(=O)NCc1c(Cl)cccc1Oc1ccccc1

System: BL21-DE3
Test: Displacement of 8-anilino-1-naphthalene-sulfonic acid from human FABP4 F16A mutant expressed in Escherichia coli BL21 (DE3) cells at 500 uM after 3 mins

Row | Compound | inhibition [%]
36 | O=C(O)CSCC(=O)Nc1cc(Cl)cc(Cl)c1 | 50.7
37 | CCCCC/C=C\C/C=C\CCCCCCCC(=O)O | 36.9

System: BL21-DE3
Test: Displacement of 8-anilino-1-naphthalene-sulfonic acid from human FABP4 F16A mutant expressed in Escherichia coli BL21 (DE3) cells at 700 uM after 3 mins

Row | Compound | inhibition [%]
38 | O=C(O)CSCC(=O)Nc1cc(Cl)cc(Cl)c1 | 57
39 | CCCCC/C=C\C/C=C\CCCCCCCC(=O)O | 39

Organism: Homo sapiens
Test: Selectivity ratio of IC50 for human FABP4 F106A mutant to IC50 for human wild type FABP4

Row | Ratio IC50 | Compound
40 | 1.3 | O=C(O)CSCC(=O)Nc1cc(Cl)cc(Cl)c1
41 | 3.4 | O=C(O)CSCC(=O)NCc1c(Cl)cccc1Oc1ccccc1

Organism: Homo sapiens
Test: Selectivity ratio of IC50 for human FABP4 F126A mutant to IC50 for human wild type FABP4

Row | Ratio IC50 | Compound
42 | 11.1 | O=C(O)CSCC(=O)Nc1cc(Cl)cc(Cl)c1
43 | 6.6 | O=C(O)CSCC(=O)NCc1c(Cl)cccc1Oc1ccccc1
